Patent US11319326B2, “Tricyclic fused derivatives of 1-(cyclo)alkyl pyrtdin-2-one useful for the treatment of cancer” (JUBILANT BIOSYS LIMITED, priority 2015, dated 2022)

Test system: MV4-11 cells
Experiment: Anticancer activity: Alamar Blue 3-day proliferation assay
Format: cell-based
Settings: AML cell line MV4-11, 72 h, read-out: MV4-11 EC50_μM
Protocol: Anticancer Activity: Alamar Blue Assay
The impact of the compounds on cancer cell proliferation was determined using the AML cell line MV4-11 (ATCC) in a 3-day proliferation assay. MV4-11 cells were maintained in RPMI supplemented with 10% FBS at 37° C., 5% CO2. For compound testing, MV4-11 cells were plated in a 96-well black bottom plate at a density of 15,000 cells/well in 100 μL culture media and incubated at 37° C. overnight. Compound dilution series were prepared in DMSO via a 3-fold serial dilution from 100 μM to 0.005 μM. The DMSO dilution series were then diluted with media, with the final compound concentrations added to the wells ranging from 10 μM to 0.0005 μM. […] The fluorescent readings from the Alamar Blue assay were normalized to the DMSO treated cells and analyzed using the GraphPad Prism software with sigmoidal curve fitting to obtain EC50.

- EC50: 13 nM
SMILES: CCNC(=O)CC1N=C(c2c(F)cccc2F)c2cc(OC)ccc2-c2cn(C)c(=O)cc21 (racemic) [Compound 38, ±2-(7-(2,6-difluorophenyl)-9-methoxy-2-methyl-3-oxo-3,5-dihydro-2H-benzo[c]pyrido[3,4-e]azepin-5-yl)-N-ethylacetamide]
